# Data published in US8053581B2, “Trisubstituted thiazole compounds, preparations methods, pharmaceutical compositions and medicals uses thereof” (Institute of Pharmacology and Toxicology Academy of …, priority 2006, dated 2011).
# What was measured:
# PLTP [1] = target: T1, PLTP (Homo sapiens, UniProt P55058); assay: Determination of PLTP inhibition activity (radiolabelled phospholipid liposome to HDL transfer with plasma); type: biochemical; conditions: for inhibition at 500 µM: Concentration of compounds 500 μM
# T1 construct: from tissue
# T1 sequence (P55058 18-493, species assumed): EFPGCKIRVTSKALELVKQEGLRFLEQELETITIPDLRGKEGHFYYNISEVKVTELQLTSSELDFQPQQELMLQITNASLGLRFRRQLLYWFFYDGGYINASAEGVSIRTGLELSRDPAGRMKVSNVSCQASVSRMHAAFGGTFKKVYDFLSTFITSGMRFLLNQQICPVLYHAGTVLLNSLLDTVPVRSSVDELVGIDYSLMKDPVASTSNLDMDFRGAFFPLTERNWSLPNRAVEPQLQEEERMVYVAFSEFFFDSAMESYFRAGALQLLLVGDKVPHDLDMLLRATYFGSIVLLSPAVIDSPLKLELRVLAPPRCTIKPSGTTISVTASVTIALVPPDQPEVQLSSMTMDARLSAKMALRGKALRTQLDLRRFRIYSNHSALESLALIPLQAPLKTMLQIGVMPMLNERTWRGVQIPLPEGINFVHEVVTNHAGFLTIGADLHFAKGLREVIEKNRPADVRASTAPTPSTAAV
# Experimental: 30 μl (about 1000 cpm/μl) phospholipids liposome, 30 μl HDL ([…]), 337 μl TSE and 3 μl plasma were mixed, incubated in 37° C. water-bath for 1 hour, and then added 300 μl of a settling solution (50 ml solution preparation: 5.36 ml 5N NaCl, 9.075 ml 2M MnCl2 and 46 mg liver phospholipid were mixed, added water to 50 ml), the solution was stood at room temperature for 10 minutes, rotated at high speed for 10 minutes (to remove phospholipids liposome), 500 μl of the supernatant was sampled and counted. PLTP activity (cpm/h/3 μl)=sample cpm-background cpm.
# CETP [2] = target: T2, CETP (Homo sapiens, UniProt P11597); assay: Determination of CETP inhibition activity (fluorescent donor/acceptor transfer); type: biochemical; conditions: for inhibition at 500 µM: Concentration of compounds 500 μM, read-out: CETP inhibition activity Inhibition rate(%)
# T2 sequence (P11597 18-493): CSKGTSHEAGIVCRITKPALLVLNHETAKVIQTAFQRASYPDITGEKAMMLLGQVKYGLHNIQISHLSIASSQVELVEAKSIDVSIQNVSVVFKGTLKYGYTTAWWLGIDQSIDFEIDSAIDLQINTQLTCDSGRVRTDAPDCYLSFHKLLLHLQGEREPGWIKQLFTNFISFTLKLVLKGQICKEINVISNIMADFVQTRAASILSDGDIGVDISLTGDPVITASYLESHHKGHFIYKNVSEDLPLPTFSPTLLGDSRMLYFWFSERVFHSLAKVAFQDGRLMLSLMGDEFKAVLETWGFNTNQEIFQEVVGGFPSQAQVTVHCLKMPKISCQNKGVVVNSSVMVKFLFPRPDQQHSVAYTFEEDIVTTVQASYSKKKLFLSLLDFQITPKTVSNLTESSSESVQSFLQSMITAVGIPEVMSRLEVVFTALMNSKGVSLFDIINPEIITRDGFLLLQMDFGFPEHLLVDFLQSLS
# Experimental: A mixture containing 3 μl of a donor, 9 μl of an acceptor (250 μg protein), 3 μl of CETP solution and 85 μl of an analytic buffer, 10 mM Tris, 0.15 M NaCl and 2 mM EDTA, pH 7.4 was incubated at 37° C. for 0.5 hours, the fluorescence intensity was determined on Victor 3 double illuminometer/fluorescence counter (Perkin Elmer) carrying […] light wave length.
# PLTP [3] = target: T1, PLTP; conditions: reported in WO 2002068450; read-out: Ki value to inhibit PLTP; cited from earlier work
# CETP [4] = target: T2, CETP; conditions: reported in WO 2002068450; read-out: Ki value to inhibit CETP; cited from earlier work
# [5] = read-out: PLTP inhibition activity Inhibition rate(%)
SMILES,IC50 (PLTP [1]),"inhibition at 150 µM (PLTP [1]; Concentration of compounds 150 μM, read-out: PLTP inhibition activity Inhibition rate(%))",inhibition at 500 µM (CETP [2]),melting point,inhibition at 500 µM (PLTP [1]; [5]),IC50 (CETP [2]),Ki (PLTP [3]),Ki (CETP [4])
"O=C(CCc1ccc(O)c(O)c1)Nc1nc(-c2ccc(O)cc2)c(Cc2ccccc2)s1 [Example 69, N-[5-benzyl-4-(4-hydroxy-phenyl)-thiazol-2-yl]-3-(3,4-dihydroxy-phenyl)-propanamide]",75 µM,75.7%,25.3%,94 to 95 °C,–,–,–,–
"COc1ccc(-c2nc(N3CCOCC3)sc2Cc2ccccc2)cc1 [Example 70, 4-[5-benzyl-4-(4-methoxy-phenyl)-thiazol-2-yl]-morpholine]",–,–,91.6%,88 to 89 °C,61%,75 µM,–,–
"COc1ccc(-c2nc(N3CCNCC3)sc2Cc2ccccc2)cc1.Cl.Cl.Cl [Example 72, 1-[5-benzyl-4-(4-methoxy-phenyl)-thiazol-2-yl]-piperazine trihydrochloride]",–,–,74.5%,111 to 112 °C,100%,–,–,–
"CC(C)(C)C(=O)Nc1ccccc1SSc1ccccc1NC(=O)C(C)(C)C [N-{2-[2-(2,2-dimethyl-propanamido)-phenyldithio]-phenyl}-2,2-dimethyl-propanamide]",–,–,–,–,–,–,15 µM,13 µM
